According to ChEMBL document CHEMBL3044672, “N9- and N7-(Chloromethyl Phenymethyl)Chloropurine Derivatives from , '-Dichloroxylenes: Synthesis and Anticancer Activity” (2005):

Experiments:
Assay type in all cases: functional
OVCAR-3 = experiment: Cytotoxicity against Homo sapiens (human) OVCAR3 cells after 48 hr by sulforhodamine B assay; details: OVCAR-3, 48 h
DU-145 = experiment: Cytotoxicity against Homo sapiens (human) DU145 cells after 48 hr by sulforhodamine B assay; details: DU-145, 48 h
HCT-116 = experiment: Cytotoxicity against Homo sapiens (human) HCT116 cells after 48 hr by sulforhodamine B assay; details: HCT-116, 48 h
SF-295 = experiment: Cytotoxicity against Homo sapiens (human) SF295 cells after 48 hr by sulforhodamine B assay; details: SF-295, 48 h
COLO 205 = experiment: Cytotoxicity against Homo sapiens (human) COLO205 cells after 48 hr by sulforhodamine B assay; details: COLO 205, 48 h
MOLT-4 = experiment: Cytotoxicity against Homo sapiens (human) MOLT4 cells after 48 hr by sulforhodamine B assay; details: MOLT-4, 48 h
TK-10 = experiment: Cytotoxicity against Homo sapiens (human) TK10 cells after 48 hr by sulforhodamine B assay; details: TK-10, 48 h
T47D = experiment: Cytotoxicity against Homo sapiens (human) T47D cells after 48 hr by sulforhodamine B assay
SF-268 = experiment: Cytotoxicity against Homo sapiens (human) SF268 cells assessed as cell growth at 10^-4 M after 48 hr by […] assay; details: SF-268, 48 h, read-out: Activity
HOP-62 = experiment: Cytotoxicity against Homo sapiens (human) HOP62 cells after 48 hr by sulforhodamine B assay; details: HOP-62, 48 h
PC-3 = experiment: Cytotoxicity against Homo sapiens (human) PC3 cells after 48 hr by sulforhodamine B assay; details: PC-3, 48 h
HCC 2998 = experiment: Cytotoxicity against Homo sapiens (human) HCC2998 cells after 48 hr by sulforhodamine B assay; details: HCC 2998, 48 h
EKVX = experiment: Cytotoxicity against Homo sapiens (human) EKVX cells after 48 hr by sulforhodamine B assay
MDA-MB-231 = experiment: Cytotoxicity against Homo sapiens (human) MDA-MB-231 cells after 48 hr by sulforhodamine B assay; details: MDA-MB-231, 48 h
OVCAR-5 = experiment: Cytotoxicity against Homo sapiens (human) OVCAR5 cells after 48 hr by sulforhodamine B assay; details: OVCAR-5, 48 h
SK-MEL-2 = experiment: Cytotoxicity against Homo sapiens (human) SK-MEL-2 cells after 48 hr by sulforhodamine B assay; details: SK-MEL-2, 48 h
NCI-H322M = experiment: Cytotoxicity against Homo sapiens (human) NCI-H322M cells after 48 hr by sulforhodamine B assay
HT-29 = experiment: Cytotoxicity against Homo sapiens (human) HT-29 cells after 48 hr by sulforhodamine B assay; details: HT-29, 48 h
MCF7 = experiment: Cytotoxicity against Homo sapiens (human) MCF7 cells after 48 hr by sulforhodamine B assay; details: MCF7, 48 h
SW-620 = experiment: Cytotoxicity against Homo sapiens (human) SW620 cells after 48 hr by sulforhodamine B assay; details: SW-620, 48 h
RPMI-8226 = experiment: Cytotoxicity against Homo sapiens (human) RPMI8226 cells after 48 hr by sulforhodamine B assay; details: RPMI-8226, 48 h
KM12 = experiment: Cytotoxicity against Homo sapiens (human) KM12 cells after 48 hr by sulforhodamine B assay; details: KM12, 48 h
SK-OV-3 = experiment: Cytotoxicity against Homo sapiens (human) SKOV3 cells after 48 hr by sulforhodamine B assay; details: SK-OV-3, 48 h
NCI-H460 = experiment: Cytotoxicity against Homo sapiens (human) NCI-H460 cells after 48 hr by sulforhodamine B assay; details: NCI-H460, 48 h
Hs-578T = experiment: Cytotoxicity against Homo sapiens (human) Hs 578T cells after 48 hr by sulforhodamine B assay
IGROV-1 = experiment: Cytotoxicity against Homo sapiens (human) IGROV1 cells after 48 hr by sulforhodamine B assay; details: IGROV-1, 48 h
OVCAR-4 = experiment: Cytotoxicity against Homo sapiens (human) OVCAR4 cells after 48 hr by sulforhodamine B assay; details: OVCAR-4, 48 h
MDA-MB-435 = experiment: Cytotoxicity against Homo sapiens (human) MDA-MB-435 cells after 48 hr by sulforhodamine B assay; details: MDA-MB-435, 48 h
SNB-75 = experiment: Cytotoxicity against Homo sapiens (human) SNB75 cells after 48 hr by sulforhodamine B assay; details: SNB-75, 48 h
SK-MEL-5 = experiment: Cytotoxicity against Homo sapiens (human) SK-MEL-5 cells after 48 hr by sulforhodamine B assay; details: SK-MEL-5, 48 h
[1] = read-out: LC50 (the source's name)

Q: Nc1nc(Cl)c2ncn(Cc3cccc(CCl)c3)c2n1 was tested. Which GI50 (OVCAR-3) did it give?
A: 0.72 µM

Q: And the LC50 (OVCAR-3)?
A: 5.49 µM

Q: What about the TGI (OVCAR-3) of the same compound?
A: 2.29 µM

Q: And the GI50 (DU-145)?
A: 4.26 µM

Q: And the LC50 (DU-145)?
A: 40.7 µM

Q: What about the TGI (DU-145) of the same compound?
A: 16.6 µM

Q: What about the GI50 (HCT-116) of the same compound?
A: 1.99 µM

Q: And the TGI (HCT-116)?
A: 3.89 µM

Q: And the CC50 (HCT-116; [1])?
A: 75.9 µM

Q: And the GI50 (SF-295)?
A: 3.38 µM

Q: What about the TGI (SF-295) of the same compound?
A: 14.5 µM

Q: And the CC50 (SF-295; [1])?
A: 39.8 µM

Q: What about the GI50 (COLO 205) of the same compound?
A: 6.76 µM

Q: What about the TGI (COLO 205) of the same compound?
A: 27.5 µM

Q: What about the CC50 (COLO 205; [1]) of the same compound?
A: 97.7 µM

Q: And the GI50 (MOLT-4)?
A: 4.78 µM

Q: What about the TGI (MOLT-4) of the same compound?
A: > 100 µM

Q: What about the CC50 (MOLT-4; [1]) of the same compound?
A: > 100 µM

Q: And the GI50 (TK-10)?
A: 2.39 µM

Q: And the TGI (TK-10)?
A: 7.08 µM

Q: What about the CC50 (TK-10; [1]) of the same compound?
A: 27.5 µM

Q: What about the GI50 (T47D) of the same compound?
A: 6.02 µM

Q: And the LC50 (T47D)?
A: > 100 µM

Q: What about the TGI (T47D) of the same compound?
A: 37.1 µM

Q: What about the growth at 100 µM (SF-268) of the same compound?
A: 0%

Q: What about the GI50 (HOP-62) of the same compound?
A: 5.75 µM

Q: What about the TGI (HOP-62) of the same compound?
A: 20.4 µM

Q: What about the CC50 (HOP-62; [1]) of the same compound?
A: 58.9 µM

Q: And the GI50 (PC-3)?
A: 9.77 µM

Q: And the LC50 (concentration causing 50% cell kill) (PC-3)?
A: 63.1 µM

Q: What about the TGI (PC-3) of the same compound?
A: 25.1 µM

Q: What about the GI50 (HCC 2998) of the same compound?
A: 3.02 µM

Q: What about the TGI (HCC 2998) of the same compound?
A: 4.89 µM

Q: What about the CC50 (HCC 2998; [1]) of the same compound?
A: 77.6 µM

Q: And the GI50 (EKVX)?
A: 21.4 µM

Q: What about the TGI (EKVX) of the same compound?
A: 36.3 µM

Q: What about the CC50 (EKVX; [1]) of the same compound?
A: 60.2 µM

Q: And the GI50 (MDA-MB-231)?
A: 12 µM

Q: What about the LC50 (MDA-MB-231) of the same compound?
A: 69.2 µM

Q: What about the TGI (MDA-MB-231) of the same compound?
A: 28.8 µM

Q: What about the GI50 (OVCAR-5) of the same compound?
A: 11 µM

Q: And the TGI (OVCAR-5)?
A: 25.1 µM

Q: What about the CC50 (OVCAR-5; [1]) of the same compound?
A: 57.5 µM

Q: And the GI50 (SK-MEL-2)?
A: 10.7 µM

Q: What about the LC50 (concentration killing 50% of cells) (SK-MEL-2) of the same compound?
A: > 100 µM

Q: What about the TGI (SK-MEL-2) of the same compound?
A: 66.1 µM

Q: What about the GI50 (NCI-H322M) of the same compound?
A: 10.5 µM

Q: What about the TGI (NCI-H322M) of the same compound?
A: 22.4 µM

Q: What about the CC50 (NCI-H322M; [1]) of the same compound?
A: 46.8 µM

Q: What about the GI50 (HT-29) of the same compound?
A: 2.51 µM

Q: What about the TGI (HT-29) of the same compound?
A: 9.77 µM

Q: What about the CC50 (HT-29; [1]) of the same compound?
A: 64.6 µM

Q: And the GI50 (MCF7)?
A: 2.39 µM

Q: And the LC50 (concentration killing 50% of cells) (MCF7)?
A: 53.7 µM

Q: And the TGI (MCF7)?
A: 9.55 µM

Q: And the GI50 (SW-620)?
A: 3.8 µM

Q: What about the TGI (SW-620) of the same compound?
A: 11.2 µM

Q: And the CC50 (SW-620; [1])?
A: 57.5 µM

Q: And the GI50 (RPMI-8226)?
A: 2.39 µM

Q: And the TGI (RPMI-8226)?
A: 11.8 µM

Q: And the CC50 (RPMI-8226; [1])?
A: > 100 µM

Q: What about the GI50 (KM12) of the same compound?
A: 3.31 µM

Q: What about the TGI (KM12) of the same compound?
A: 13.2 µM

Q: And the CC50 (KM12; [1])?
A: 37.1 µM

Q: And the GI50 (SK-OV-3)?
A: 24 µM

Q: What about the LC50 (SK-OV-3) of the same compound?
A: > 100 µM

Q: And the TGI (SK-OV-3)?
A: 67.6 µM

Q: What about the GI50 (NCI-H460) of the same compound?
A: 4.26 µM

Q: What about the TGI (NCI-H460) of the same compound?
A: 15.8 µM

Q: What about the CC50 (NCI-H460; [1]) of the same compound?
A: 47.9 µM

Q: And the GI50 (Hs-578T)?
A: 11.5 µM

Q: And the LC50 (Hs-578T)?
A: > 100 µM

Q: And the TGI (Hs-578T)?
A: 60.2 µM

Q: What about the GI50 (IGROV-1) of the same compound?
A: 3.46 µM

Q: What about the LC50 (IGROV-1) of the same compound?
A: 55 µM

Q: What about the TGI (IGROV-1) of the same compound?
A: 12.9 µM

Q: What about the GI50 (OVCAR-4) of the same compound?
A: 1.95 µM

Q: What about the LC50 (concentration killing 50% of cells) (OVCAR-4) of the same compound?
A: 9.54 µM

Q: And the TGI (OVCAR-4)?
A: 4.26 µM

Q: And the GI50 (MDA-MB-435)?
A: 3.81 µM

Q: What about the LC50 (MDA-MB-435) of the same compound?
A: 85.1 µM

Q: What about the TGI (MDA-MB-435) of the same compound?
A: 22.4 µM

Q: And the GI50 (SNB-75)?
A: 5.75 µM

Q: What about the TGI (SNB-75) of the same compound?
A: 19.5 µM

Q: And the CC50 (SNB-75; [1])?
A: 51.3 µM

Q: What about the GI50 (SK-MEL-5) of the same compound?
A: 11 µM

Q: And the LC50 (SK-MEL-5)?
A: 51.3 µM

Q: And the TGI (SK-MEL-5)?
A: 23.4 µM
